{"source": "patent US9925185B1", "about": "“Treatment and prevention methods for mammalian neurosensory hair cells loss” (Creighton University, priority 2014, dated 2018)", "key": {"N2a cells": {"system": "N2a cells", "protocol": "(§1) Cytotoxicity effects for each drug were measured by the colorimetric MTT assay. The MTT assay includes a yellow tetrazole that is reduced to purple formazan in living cells. In this implementation, solubilization solution (e.g., dimethyl sulfoxide, an acidified ethanol solution, or a solution of the detergent sodium dodecyl sulfate in diluted hydrochloric acid) was added to dissolve the insoluble purple formazan product into a colored solution. The absorbance of this colored solution was quantified by measuring at a certain wavelength (e.g, between 500 and 600 nm) by a spectrophotometer where the degree of light absorption depends on the solvent. The MTT assay can provide a useful measure of cell viability and proliferation. To quantify cytotoxicity, 10 μl of 10 mg/ml of MTT reagent was added to a well containing cells, and the cells were incubated at 37° C. for 4 hours. The supernatant was aspirated and the purple-colored formazan product was dissolved in 100 μl of DMSO. Absorbance was measured at 590 nm. The average of triplicate wells was taken for each concentration of the drug, and cell viability was calculated by substituting the corresponding mean absorbance values using the following equation:\n(§2) A T-test (*=p<0.01; 0 μM=untreated cells) was used to compare toxicity between the two drugs at different concentrations."}, "HT 1080 cells": {"system": "HT 1080 cells", "protocol": "as §1, §2"}, "[1]": {"system": "cisplatin-treated HT 1080 cells", "experiment": "Protective potential of quinoxaline pre-treatment on cisplatin-treated HT 1080 cells", "type": "cell-based, human", "settings": "quinoxaline pre-treatment 1 hour, then 100 μM cisplatin 24 hours", "protocol": "as §1, with “equation: […]” for “equation:”\n(§3) Cells were plated at a density of 20,000 cells per well overnight, followed by a pretreatment with varying concentrations of quinoxaline for one hour. […]"}, "[2]": {"system": "cisplatin-treated N2a cells", "settings": "1 μM quinoxaline pre-treatment, then 100 μM cisplatin", "protocol": "as §1, with “equation: […]” for “equation:”\nas §3"}, "HEI-OC1 cells [3]": {"system": "HEI-OC1 cells", "experiment": "CYQUANT cell proliferation assay (DNA content) in HEI-OC1 cells", "type": "cell-based", "settings": "200 nM, 500 nM, 1 μM, 5 μM for 24 hours, t-test p<0.001, most noticeable at 200 and 500 nM", "protocol": "In an implementation, HEI-OC1 cells were treated with different concentrations (e.g., 200 nM, 500 nM, 1 μM, and 5 μM) of quinoxaline for 24-hours. Untreated cells were used as control groups. To quantify potential changes in cell proliferation following the treatment, DNA isolated from treated and untreated cells was submitted to CYQUANT analysis (Invitrogen, Grand Island, N.Y.), following the manufacturer's instructions for cell proliferation assay. The CYQUANT assay is based on the principle that cell number is proportional to the measurement of cellular DNA content. However, the use of the CYQUANT assay is offered by way of example only and is not meant to be restrictive of the present disclosure. In other embodiments, other types of cell proliferation assays can be used to quantify potential changes in cell proliferation. FIG. 3B illustrates the DNA content of untreated cells and quinoxaline-treated cells. […] Quinoxaline's effect in cell proliferation was most noticeable when cells were treated with lower concentrations (i.e., 200 nm and 500 nM) of the drug."}, "HEI-OC1 cells [4]": {"system": "HEI-OC1 cells", "type": "cell-based", "settings": "24 hours", "protocol": "As previously done for HT 1080 and N2a cells, the potential cytotoxicity of quinoxaline was measured in HEI-OC1 cells. HEI-OC1 cells were treated with a crescent dosage of quinoxaline (i.e., 200 nM, 500 nM, 1 μM, 10 μM, 50 μM) for 24 hours and submitted to MIT analyses."}, "[5]": {"system": "cisplatin-treated HEI-OC1 cells", "experiment": "Protective potential of quinoxaline pre-treatment on cisplatin-treated HEI-OC1 cells", "type": "cell-based", "method": "HEI-OC1 cells were plated at a density of 20,000 cells per well overnight, followed by a pre-treatment with varying concentrations of quinoxaline (i.e., 200 nM, 1 μM, 10 μM, and 50 μM) for one hour."}, "[6]": {"system": "cochlear hair cells (organ of Corti)", "experiment": "In vivo chemoprotective and proliferative effects on cochlear hair cells of cisplatin-treated mice", "settings": "C57BL/6 mice", "protocol": "The inner ear neurosensory epithelia, the organ of Corti (OC), were analyzed. FIGS. 4A through 4D illustrate the outer hair cells (OHCs) and inner hair cells (IHCs) in the middle turn of the cochlea of adult C57BL/6 mice submitted to different treatments. The control group was the untreated cochlea, illustrated in FIG. 4A."}}}
{"smiles": "N.N.[Cl][Pt][Cl]", "note": "[cisplatin, reference compound]", "values": [{"measurement": "cell response compared with HT 1080 cells", "setting": "N2a cells", "result": "No statistically significant differences"}]}
{"smiles": "c1ccc2nccnc2c1", "note": "[quinoxaline]", "values": [{"measurement": "cytotoxicity", "setting": "HT 1080 cells", "result": "consistently lower than that of cisplatin"}, {"measurement": "effect on cell proliferation (total number of cells)", "setting": "HT 1080 cells; HT 1080 cells, 0.5 μM", "result": "modest, but quantifiable, positive effect on cell proliferation"}, {"measurement": "cell response compared with HT 1080 cells", "setting": "N2a cells", "result": "No statistically significant differences"}, {"measurement": "overall cytotoxicity versus 100 μM cisplatin only", "setting": "[1]", "result": "significantly reduced overall cytotoxicity"}, {"measurement": "cell proliferation", "setting": "[2]", "result": "promoted their proliferation"}, {"measurement": "DNA content (cell proliferation) versus untreated cells", "setting": "HEI-OC1 cells [3]", "result": "statistically significant increase in DNA content"}, {"measurement": "cell death", "setting": "HEI-OC1 cells [4]; HEI-OC1, dosages higher than 10 μM", "result": "smaller, but quantifiable cell death"}, {"measurement": "cell proliferation", "setting": "HEI-OC1 cells [4]; HEI-OC1, lower doses of quinoxaline", "result": "increase in cell proliferation"}, {"measurement": "sensitivity of HEI-OC1 cells", "setting": "HEI-OC1 cells [4]; quinoxaline concentrations higher than 5 μM", "result": "particularly sensitive"}, {"measurement": "survival rate", "setting": "[5]; 200 nM quinoxaline 1 hour pre-treatment + 200 μM cisplatin 24 hours", "result": 25, "unit": "%"}, {"measurement": "survival rate", "setting": "[5]; 1 μM quinoxaline 1 hour pre-treatment + 200 μM cisplatin 24 hours", "result": 40, "unit": "%"}, {"measurement": "cell survival", "setting": "[5]; pre-treated with higher than 10 μM quinoxaline + 200 μM cisplatin", "result": "No statistically significant differences in cell survival"}, {"measurement": "cell proliferation (numbers of supernumerary cells)", "setting": "[6]; low doses (e.g., 15 mg)", "result": "increase in the numbers of supernumerary cells"}, {"measurement": "supernumerary myosin VIIa-positive cells at the IHC region", "setting": "[6]; quinoxaline pre-treated ears", "result": "supernumerary myosin VIla-positive cells were observed"}, {"measurement": "myosin VIIa-positive hair cells in middle turn of cochlea", "setting": "[6]; quinoxaline pre-treatment + cisplatin 20 mg/Kg, versus cisplatin only", "result": "myosin VIla-positive hair cells were still observed"}]}
